Results published in US8314140B2, “4-hydroxythiobenzamide derivatives of drugs” (Antibe Therapeutics Inc., priority 2006, dated 2012).

Experiments:
visceral pain perception = test: Rat model of visceral pain perception (colorectal distension, AWR score); assay type: in vivo; conditions: 0.8 mL colorectal distention; for pain perception score: 100 mg/kg i.p., FIG. 3, FIG. 4
Experimental: A rat model of visceral pain perception, a pre-clinical model of irritable bowel syndrome, was used in the following example. Rats (male, Wistar, 200-250 g, obtained from Charles River, Monza, Italy), were housed in plastic cages and maintained under controlled conditions with 12-hours light/dark cycle with lights on at 7.00 AM. Tap water and standard laboratory chow were freely available. Before experiments, rats were individually trained by spending 2-3 hours per day in a plexiglass cage for 2-3 days. It allowed them to adjust to a movement-restriction environment. Food was withheld for 12 hours before colorectal distension (CRD) recording were performed. Experiments were performed in awake rats and were conducted in a blind manner in that the observer was not aware of the identity of drug administered to each animal.
In the testing day, rats were sedated with ether inhalation and a 2 cm long latex balloon was inserted intrarectally 2 cm from the anal verge and fixed at the base of the tail. The balloon was connected via a double-barreled cannula to a pressure transducer to continuously monitoring the rectal pressure by a computer (PowerLab PC, A.D. Instruments, Milford, Mass., USA) and to a syringe for inflation/deflation of the balloon. The rats were then housed in a small cage (20×8×8 cm) on an elevated Plexiglas™ platform and allowed to wake up and adapt for 1 hour. After recovery from sedation, animals underwent the CRD procedure and behavioral responses were tested. The night before the experiments, the balloons were inflated and left overnight so the latex stretched and the balloons became compliant.
CRD of 20 seconds, performed every 5 minutes, was applied in increment of 0.4 ml starting from 0.4 ml up to 1.6 ml water. To achieve an accurate measurement of the colonic parameters and perception, the distensions were repeated twice for each intensity and data for each animal were averaged for analysis. Each animal underwent a double set of CRD. Twenty minutes after the first sequence of CRD (0.4 mL-1.6 ml water), drugs were administered intraperitoneally (i.p.) and a second set of CRD was performed. Behavioral responses during the first and the second set of CRD were assessed and compared.
Behavioral response to CRD was assessed by measuring the abdominal withdrawal reflex (AWR) using a semiquantitative score (1).
A rat model of visceral pain perception as described above was used to compare pain perception scores for 5-amino-2-(4-thiocarbamoyl-phenoxycarbonyloxy)-benzoic acid (Compound XXVII) with or without glibenclamide, an inhibitor of ATP-sensitive K^+ (KATP) channels.
Experiments were carried out as described in Example 13, except that groups of 5 rats each were treated with vehicle, trimebutine maleate (10 mg/kg), or with equimolar doses of trimebutine thiocarbamoylbenzoate (Compound III) or thiocarbamolybenzoate alone.

[1] = H2S generation in buffer and liver homogenate (Example 15); assay type: in vitro ADME, rat; conditions: for H2S generation in buffer: buffer pH 7.4, 37° C.
Experimental: (Compound XXVII) was tested for H2S generation under three different conditions. Concentrations of H2S that were generated within 1 hour from 1 mM concentrations of L-cysteine, 4-HBT (4-hydroxythiobenzamide) and 5-amino-2-(4-thiocarbamoyl-phenoxycarbonyloxy)-benzoic acid were measured. H2S release was tested under three conditions: (i) when the compound was in buffer, (ii) when the compound was in a liver homogenate, and (iii) when the compound was in the liver homogenate together with an inhibitor of cystathionine γ-lyase (PAG=DL-propargylglycine; 2 mM). Results are shown in FIG. 6. *p<0.05 compared to the release from the vehicle group. ^ψp>0.05 versus the corresponding ‘homogenate’ group. The enzymatic capacity for H2S production was determined using the same reactor as described previously (Khan et al. (1980) Microchem J 25: 388-395, incorporated herein by reference). Two ml of an assay reaction mixture was introduced in the reactor. The mixture contained 1 mM L-cysteine (or compound), 2 mM pyridoxal 5′-phosphate, 100 mM potassium phosphate buffer (pH=7.4). A constant stream of nitrogen was passed through the mixture via gas-inlet capillary. Reactions were initiated by transferring the tubes from ice bath to a 37° C. water bath. The stream of nitrogen carried the sulfide acid in the second reactor containing 4 ml of sulfide anti-oxidant buffer (SAOB) solution, consisting of 2M KOH, 1M salicylic acid and 0.22M ascorbic acid at pH 12.8[5]. After incubating at 37° C. for 90 minutes, 1 ml of 10% trichloroacetic acid solution was added to mixture to stop the reaction. The remainder H2S in the mixture was carried out via nitrogen stream by other 60 minutes of incubation at 37° C. The concentration of sulfide in SAOB solution was measured with a sulfide sensitive electrode (Model 9616 S^2−/Ag^+ electrode, Orion Research, Beverly, Mass., USA). For studies in which the test compounds were incubated in liver homogenate, 100-150 mg of isolated rat livers were homogenized in 1 ml of ice-cold T-PER protein extractor. The homogenates were added to the reaction mixture at a concentration of 10% (wt/vol). DL-propargylglycine 2 mM was incubated with liver homogenates for 5 min at 37° C. prior the enzyme reaction. Khan, S. U. Morris, G. F. and Hidiroglou, M. (1980) Rapid estimation of sulfide in rumen and blood with a sulfide-specific ion electrode. Microchem J. 25:388-395, incorporated herein by reference.

gastric ulcers = test: Healing of acetic acid-induced gastric ulcers; assay type: in vivo, rat; conditions: oral twice-daily for 4 days; 30 μmol/kg (naproxen, Compound XX 60 μmol/kg); FIG. 17
Experimental: Gastric ulcers were induced via serosal application of acetic acid, as described by Elliott et al., A nitric oxide-releasing nonsteroidal anti-inflammatory drug accelerates gastric ulcer healing in rats. […] After 4 days of such treatment, the rats were euthanized and the stomach was excised and photographed. The area (in mm^2) of the ulcer was determined planimetrically by an individual unaware of the treatments given to the rats.

Compound | pain perception score (visceral pain perception) | pain perception score after glibenclamide pretreatment (visceral pain perception; glibenclamide 10 mg/kg i.p. 30 min before, FIG. 3) | H2S generation in liver homogenate ([1]; 1 mM compound, 10% rat liver homogenate, FIG. 6) | H2S generation in buffer ([1]; 1 mM compound, FIG. 6) | H2S generation in liver homogenate with PAG ([1]; 1 mM compound, liver homogenate plus DL-propargylglycine 2 mM, FIG. 6) | concentration of H2S produced ([1]; 1 mM of the compound) | gastric ulcer healing (ulcer surface area) (gastric ulcers)
5-amino-2-(4-thiocarbamoyl-phenoxycarbonyloxy)-benzoic acid [Compound XXVII] | significantly reduced the pain perception | reversed by pretreatment with glibenclamide | greater when in the presence of tissue | releases H2S spontaneously | lack of effect | 10 to 20 µM | –
NC(=S)c1ccc(O)cc1 [4-hydroxythiobenzamide] | did not have a significant effect on pain perception | – | – | did not release significant H2S | – | – | did not significantly affect the healing of gastric ulcers
